In PubChem BioAssay (NCI):
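How tested: cells in 96-well plates exposed to compound for 48 hours at five concentrations. Abbreviation: GI50, concentration required for 50% inhibition of growth. TGI: total growth inhibition.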

Columns and labels:
Experiment in all cases: growth of human tumour cells (NCI), 48 h
HOP-62 NSCLC = tested on: HOP-62 NSCLC
SN12C renal = tested on: SN12C renal
MALME-3M melanoma = tested on: MALME-3M melanoma
COLO 205 colon = tested on: COLO 205 colon
SF-295 CNS = tested on: SF-295 CNS
OVCAR-5 ovarian = tested on: OVCAR-5 ovarian
SK-MEL-5 melanoma = tested on: SK-MEL-5 melanoma
SF-268 CNS = tested on: SF-268 CNS
TK-10 renal = tested on: TK-10 renal
HCT-116 colon = tested on: HCT-116 colon

Compound	TGI (HOP-62 NSCLC)	TGI (SN12C renal)	TGI (MALME-3M melanoma)	TGI (COLO 205 colon)	TGI (SF-295 CNS)	TGI (OVCAR-5 ovarian)	TGI (SK-MEL-5 melanoma)	TGI (SF-268 CNS)	TGI (TK-10 renal)	TGI (HCT-116 colon)	GI50 (SF-268 CNS)	GI50 (HOP-62 NSCLC)	GI50 (SN12C renal)	GI50 (MALME-3M melanoma)	GI50 (COLO 205 colon)	GI50 (SF-295 CNS)	GI50 (OVCAR-5 ovarian)	GI50 (SK-MEL-5 melanoma)	GI50 (TK-10 renal)	GI50 (HCT-116 colon)
Cn1ncc2c(Nc3cccc(Cl)c3)nc(Nc3cccc(Cl)c3)nc21	68.6 µM	> 67.5 µM	48 µM	> 53.8 µM	21.1 µM	38.8 µM	> 51.6 µM	55.8 µM	27.9 µM	> 58.3 µM										
CCOC(=O)C(Cc1cn(C(C)=O)c2ccccc12)P(=O)(OCC)OCC (stereo unspecified)	> 100 µM	> 100 µM		> 100 µM	> 100 µM	> 100 µM	> 100 µM		> 100 µM	> 100 µM										
CC(C)C(=O)CC(c1ccc(Cl)cc1)N1N=C(C(C)C)CC1c1ccc(Cl)cc1 (stereo unspecified)	> 100 µM	> 100 µM	> 100 µM	> 100 µM	> 31.6 µM		> 100 µM	> 100 µM	> 100 µM	> 100 µM	> 100 µM									
N#CCCN(CCC#N)c1ccc(/C=C(\NC(=O)c2cc([N+](=O)[O-])ccc2Cl)C(=O)Nc2ccccc2)cc1	> 100 µM	> 100 µM		> 100 µM	> 100 µM	> 100 µM	> 100 µM	> 100 µM	> 100 µM	> 100 µM										
COc1ccc(C(O)(c2ccccc2)c2nccc3ccccc23)cc1 (stereo unspecified)	> 100 µM	> 100 µM	7.27 µM	> 100 µM	> 100 µM	> 100 µM	12.7 µM	> 100 µM	> 100 µM	> 100 µM										
Cc1[nH]c(=O)[nH]c(=O)c1/C=C/C(=O)NC(CO)CS(=O)Cc1ccccc1 (stereo unspecified)	> 300 µM	> 300 µM	> 300 µM	> 300 µM	> 300 µM	> 300 µM	> 300 µM	> 300 µM		> 300 µM										
O=C(O)CCc1nc2ccccc2[nH]1	> 100 µM	> 100 µM	> 100 µM	> 100 µM	> 100 µM	> 100 µM	> 100 µM	> 100 µM	> 100 µM	> 100 µM										
C/C(=N\NC(=S)N(C)C)c1nc2ncccc2[nH]1	> 100 µM	> 100 µM	6.68 µM	23.9 µM		> 100 µM	1.87 µM	> 100 µM	> 100 µM	> 100 µM										
OCCCNc1ncnc2[nH]ncc12	> 100 µM	> 100 µM	> 100 µM	> 100 µM	> 100 µM	> 100 µM	> 100 µM	> 100 µM	> 100 µM	> 100 µM										
O=C(Nc1ccc(-n2cc(-c3ccncc3)c(-c3ccc(O)c(Cl)c3)n2)cc1)Nc1ccc(Cl)c(C(F)(F)F)c1	27.6 µM	17.2 µM	17.1 µM	22.9 µM	14.6 µM	19.1 µM	10.7 µM	26.7 µM	9.78 µM	10.8 µM	4.36 µM	6.56 µM	4.28 µM	3.04 µM	6.23 µM	2.99 µM	5.29 µM	2.87 µM	2.71 µM	3.15 µM
Cn1ccc(C(=O)NCCN(CCNC(=O)c2ccn(C)c(=O)c2O)CCNC(=O)c2ccn(C)c(=O)c2O)c(O)c1=O	> 100 µM	> 100 µM	> 100 µM	> 100 µM	> 100 µM	> 100 µM	> 100 µM	> 100 µM	> 100 µM											
C/C(=N\NC(=S)NCCCCNC(=S)N/N=C(\C)c1ccccn1)c1ccccc1	6 µM	4.43 µM	> 52.4 µM		> 37.6 µM	> 85.6 µM		> 36.5 µM	40.6 µM	81.5 µM										
Cc1c(Cl)nc(Cl)nc1Cl	9.22 µM	7.53 µM	2.68 µM	1.15 µM	10.6 µM	3.46 µM	5.8 µM	4.01 µM	7.16 µM	3.95 µM										
c1ccc(C(NC2=NCCO2)c2ccccc2)cc1	> 10 µM	> 10 µM	> 10 µM	> 10 µM	> 10 µM	> 10 µM	> 10 µM	> 10 µM	> 10 µM	> 10 µM										
CCCn1cc2c(SC)nc(SC)nc2n1		> 100 µM	> 100 µM	> 100 µM	> 100 µM	> 100 µM	> 100 µM	> 100 µM	> 100 µM	> 100 µM										
